Patent publication US20100249061A1, “OLIGOSACCHARIDES, PREPARATION METHOD AND USE THEREOF, AND PHARMACEUTICAL COMPOSITIONS CONTAINING SAME” (Aventis Pharma S.A., priority 2004, published 2010)
Read-outs that look alike come from different tables or passages of the source. Each block holds one substance with its values, some of them ahead of it.

Columns and labels:
heparanase = biological target: T1, heparanase (Homo sapiens, UniProt Q9Y251); experiment: Heparanase inhibition in an enzymatic system (degradation of fondaparinux, residual anti-factor Xa activity); format: biochemical
T1 sequence (Q9Y251 36-543): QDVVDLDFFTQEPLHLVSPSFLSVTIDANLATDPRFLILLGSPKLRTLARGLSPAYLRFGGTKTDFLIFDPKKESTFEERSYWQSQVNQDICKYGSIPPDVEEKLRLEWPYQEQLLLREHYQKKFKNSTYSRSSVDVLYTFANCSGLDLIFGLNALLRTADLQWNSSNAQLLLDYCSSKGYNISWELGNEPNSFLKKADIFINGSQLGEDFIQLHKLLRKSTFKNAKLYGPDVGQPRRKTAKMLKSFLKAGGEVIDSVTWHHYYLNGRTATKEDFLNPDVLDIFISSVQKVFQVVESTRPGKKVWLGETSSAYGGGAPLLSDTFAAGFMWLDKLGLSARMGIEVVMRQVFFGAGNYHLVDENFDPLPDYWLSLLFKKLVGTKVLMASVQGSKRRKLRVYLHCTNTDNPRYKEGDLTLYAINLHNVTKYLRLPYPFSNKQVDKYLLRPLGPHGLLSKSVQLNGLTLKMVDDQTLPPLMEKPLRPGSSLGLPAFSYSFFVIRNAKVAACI
Protocol: The concentration of fondaparinux is determined by virtue of its anti-factor Xa activity.
The heparanase is produced by Sanofi-Synthélabo (Labège, France). The reagents for assaying factor Xa are sold by Chromogénix (Montpellier, France).
Increasing concentrations of a compound according to the invention, heparanase inhibitor ([…]), are mixed with a fixed concentration of heparanase (for each batch, preliminary experiments make it possible to determine the enzymatic activity sufficient for degradation of 0.45 μg/ml of fondaparinux added). After 5 minutes at 37° C., the mixture is brought into contact with the fondaparinux and left at 37° C. for 1 hour. The reaction is stopped by heating at 95° C. for 5 minutes. The residual fondaparinux concentration is finally measured by adding factor Xa and its specific chromogenic substrate (Ref. S2222).
50 μl of sodium acetate buffer (0.2 M, pH 4.2) are mixed with 50 μl of fondaparinux (0.45 μg/ml) and 59 μl of a heparanase solution. The mixture is incubated for 1 hour at 37° C. and then for 5 minutes at 95° C. The pH thus goes from 4.2 to 7. 100 μl of the reaction mixture are then mixed with 50 μl of 50 mM Tris buffer containing 175 mM NaCl and 75 mM EDTA, […]. The anti-factor Xa activity of the fondaparinux is measured in the following way:
100 μl of the solution obtained in step a) are mixed with 100 μl of AT (0.5 μg/ml). The mixture is kept at 37° C. for 2 minutes and 100 μl of factor Xa (7 nkat/ml) are then added. The mixture is kept at 37° C. for 2 minutes and 100 μl of chromogenic substrate (Ref.: S2222) (1 mM) are then added. The mixture is kept at 37° C. for 2 minutes and then 100 μl of acetic acid (50%) are added. The optical density is read at 405 nm. A percentage inhibition is determined relative to the control without inhibitor. A percentage inhibition curve makes it possible to calculate an IC50.

[1] = Petitou et al., J. Biol. Chem. (1988); sodium salt; cited from earlier work
ATIII = ATIII (Homo sapiens, UniProt P01008); experiment: Affinity for ATIII; format: binding
[2] = Stability in alkaline medium / physicochemical properties; conditions: loses 3-O-sulphated terminal glucosamine, converted to pentasaccharide ΔIs-IIaid-GlcA as soon as pH exceeds 8
Protocol: The depolymerization of the heparin takes place under the following conditions: 3 g of heparin from porcine mucous are dissolved in 30 ml of a solution of 0.2M NaCl, 0.02% BSA, 5 mM Na2HPO4, adjusted to pH 7. The depolymerization temperature is 16° C. 2 IU of heparinase 1 are initially introduced. After 7 days, an additional unit of heparinase 1 is added. After 15 days, the heparin depolymerization is considered to be finished. The reaction is monitored either by analytical […] on a TSK Super SW 2000 column (FIG. 1), or on a CTA-SAX column (FIG. 2a). The enzyme reaction may be considered to be sufficiently advanced when the proportion of oligosaccharides greater than octasaccharide in size is limited and when the two main sulphated hexasaccharides ΔIs-Isid-Isid and ΔIs-Isid-IIsglu in the mixture have been depolymerized to tetrasaccharides. When the enzyme reaction has finished, the solution is filtered through a 0.2 μm membrane and then injected, in 2 stages, onto a GC column filled with Biogel P10 (Bio Rad), in which a 0.2 N NaCl mobile phase circulates (FIG. 3). […] It is therefore very important to slightly acidify (pH between 5 and 6) the entire hexasaccharide fraction.

[3] = biological target: T2, heparanase isolated from human peripheral blood leukocytes (PMN supernatant) (Homo sapiens, UniProt Q9Y251); experiment: Heparanase degradation of 35-S-labelled heparan sulphate proteoglycan, gel permeation chromatography and scintillation counting; format: biochemical
T2 construct: The supernatants containing the heparanase are then collected; from tissue; host or cells: human peripheral blood leukocytes (buffy coats) enriched in PMNs; cell supernatant
T2 sequence (Q9Y251 36-543): T1 sequence (Q9Y251 36-543)
From the text: Radiolabelled heparin/heparan sulphate (HS) is degraded with heparanases, producing low molecular weight HS fragments which can be measured by gel permeation chromatography (FPLC) and counting of the collected fractions by liquid scintillation.
A uterine fibroblast cell line was used to prepare heparan sulphate (proteoglycan) labelled with 35-S by metabolic labelling. It has been shown that this cell line produces relatively large amounts of various heparan sulphate proteoglycans (HS-PGs), such as syndecans and glypican (Drzeniek et al., Blood 93:2884-2897, 1999).
The labelling is carried out by incubating the cells, with a cell density of approximately 1×10^6 cells/ml, in the presence of 35-S-sulphate at 33 μCi/ml in the tissue culture medium for 24 hours. The supernatants are then collected and a protease inhibitor, PMSF (phenylmethylsulfonyl fluoride) (1 mmol/l), is added. […]
200 μl of 35-S-labelled heparan sulphate (proteoglycans) adjusted to approximately 2200 cpm/ml (cpm=counts per minute) are incubated at 37° C. for 18 hours with 1 μl of PMN supernatant containing the heparanase. 200 μl of the mixture obtained above are sampled on a TSK 4000 gel permeation chromatography column (FPLC), and the fractions are collected and analyzed by liquid scintillation counting.
The degradation was measured according to the following formula: […]
For example, the percentage degradation is calculated as follows: the sum of the counts (cpm) in fractions 20-33 of the sample after treatment with the heparanase, minus the background noise count (cpm) (fractions 20-33) of the control sample, is divided by the total counts (fractions 12-33) applied to the column. […] A correction for the sulphatase activity is not necessary since no sulphatase activity could be detected.
The following heparanase inhibitors: unfractionated heparin (UF-H) and Hexa Iso ATIII were assayed via the protocol described above at three different concentrations. […] The data are expressed as percentage inhibition of the heparanase activity. […]

Sequence of ATIII (P01008 33-464, species assumed): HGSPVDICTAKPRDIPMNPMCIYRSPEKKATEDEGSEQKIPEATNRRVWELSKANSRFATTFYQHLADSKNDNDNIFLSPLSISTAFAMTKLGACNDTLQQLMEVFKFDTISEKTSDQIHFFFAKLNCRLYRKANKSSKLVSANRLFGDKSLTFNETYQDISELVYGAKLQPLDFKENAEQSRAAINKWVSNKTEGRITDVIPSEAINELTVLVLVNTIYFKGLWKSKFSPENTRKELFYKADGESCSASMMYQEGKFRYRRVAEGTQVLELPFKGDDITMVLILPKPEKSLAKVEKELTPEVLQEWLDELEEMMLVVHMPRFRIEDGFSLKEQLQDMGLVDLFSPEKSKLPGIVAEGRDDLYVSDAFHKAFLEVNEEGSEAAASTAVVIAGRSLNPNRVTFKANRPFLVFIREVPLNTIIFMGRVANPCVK

Substance: ΔIs-IIa-IIs [(Ia)]
% inhibition (heparanase; Concentration 1.00E−4 M): 53.8%

affinity for ATIII (ATIII): no affinity for ATIII
stability in alkaline medium [2]: extremely fragile in alkaline medium
heparanase-inhibiting activity (conclusion in words) [3]: strong heparanase-inhibiting activity
heparanase-inhibiting activity (conclusion in words) ([3]; listed as hexasaccharide Iso ATIII): very good heparanase inhibitor
dose dependence of heparanase inhibition ([3]; three concentrations, FIG. 2 / FIG. 7): dose-dependant inhibition
% inhibition (heparanase; Concentration 3.00E−5 M): 48.5%
Substance: ΔIs-IIaid-IIsglu [Hexa Iso ATIII]
anti-thrombotic activity [1]: no anti-thrombotic activity
anti-thrombotic activity (Anti-thrombotic activity): devoid of anti-thrombotic activity

Substance: ΔIs-Ia-IIs [(Im)]
% inhibition (heparanase; Concentration 3.00E−5 M): 54.1%

Substance: ΔIs-Is-IIa-IIs [(Ib)]
% inhibition (heparanase; Concentration 1.00E−5 M): 59.9%

Substance: ΔIs-Is-IIa-IIs [(Ic)]
% inhibition (heparanase; Concentration 3.00E−6 M): 59.2%

Substance: ΔIs-Is-Ia-IIs [(Id)]
% inhibition (heparanase; Concentration 3.00E−5 M): 53.9%

Substance: ΔIs-Is-Is-IIa-IIs [(If)]
% inhibition (heparanase; Concentration 3.00E−6 M): 58.4%

Substance: ΔIs-Is-Is-IIa-IIs [(Ig)]
% inhibition (heparanase; Concentration 1.00E−4 M): 55.8%

Substance: ΔIs-Is-Is-IIs [(Ie)]
% inhibition (heparanase; Concentration 3.00E−5 M): 59.1%

Substance: ΔIs-Is-Is-Ia-IIs [(Ih)]
% inhibition (heparanase; Concentration 3.00E−5 M): 55.5%

Substance: ΔIs-Is-Is-Is-IIs [(Ij)]
% inhibition (heparanase; Concentration 3.00E−5 M): 48.4%
